In patent US20220388972A1, “CHROMAN-4-ONE DERIVATIVES FOR THE TREATMENT AND PROPHYLAXIS OF HEPATITIS B VIRUS INFECTION” (Hoffmann-La Roche Inc., priority 2018, published 2022):

Tests used:
[1] = tested on: HBV cccDNA (HBeAg as surrogate marker) in HepDES19 cells; test: Engineered HepDES19 primary screen assay (HBeAg as surrogate marker for cccDNA); assay type: cell-based; details: Hepatitis B virus, HepDES19, 120 h
Description: The assay was employed to screen for cccDNA inhibitors. HepDES19 is a cccDNA-producing cell line. In this cell line, HBeAg in the cell culture supernatant as surrogate marker, as HBeAg production depends on cccDNA level and activity. HepDES19 is an engineered cell line which contains a 1.1 unit length HBV genome, and pgRNA transcription from the transgene is controlled by Tetracycline (Tet). In the absence of Tet, pgRNA transcription will be induced, but HBV e antigen (HBeAg) could not be produced from this pgRNA due to very short leader sequence before the HBeAg start codon and the start codon is disrupted. Only after cccDNA is formed, the missing leader sequence and start codon mutation would be restored from the 3′-terminal redundancy of pgRNA, and then HBeAg could be synthesized. Therefore, HBeAg could be used as a surrogate marker for cccDNA (Zhou, T. et al., Antiviral Res. (2006), 72 (2), 116-124; Guo, H. et al., J. Virol. (2007), 81 (22), 12472-12484).
HepDES19 cells were seeded at 2×10^6 cells per T150 flask and cultured with the culture medium (Dulbecco's Modified Eagle Medium: Nutrient Mixture F-12 [DMEM-F12, Gibco Cat. 11320-82], 10% Fetal Bovine Serum [FBS, Clontech Cat. 631101], 0.1 mM Non-Essential Amino Acids Solution [NEAA, Gibco Cat. 11140-050], 50 μg/mL Penicillin-Streptomycin [PS, Invitrogen Cat. 15140-163], 500 μg/mL Geneticin [G418, Invitrogen Cat. 10131-027]) containing 3 μg/mL Tet (Sigma, Cat. 87128) for 5 days. Cells were then seeded at 4×10^6 cells per T150 in the same culture medium as described above in the absence of Tet for 8 days. Cells were then harvested and frozen at density of 2×10^6 cells per mL. For compound testing, the frozen cells were thawed and seeded into 96-well plates at a density of 6×10^4 cells per well. At 24 hours after seeding, half log serial dilutions of compounds made with Dimethyl sulfoxide (DMSO, Sigma, Cat. D2650) were further diluted with the same culture medium as described above before they were added to the cells to reach desired final compound concentrations and 1% DMSO concentration. Plates were then incubated at 37° C. for another 5 days before measurement of HBeAg level and cell viability. Intracellular HBeAg level were measured with enzyme-linked immunosorbent assay (ELISA) kit (Shanghai Kehua Diagnostic Medical Products Co., Ltd). Cell viability was assessed using Cell Counting Kit-8 (DonJindo, Cat. CK04-20). IC50 values were derived from the dose-response curve using 4 parameters logistic curve fit method.
The compounds of the present invention were tested for their capacity to inhibit extracellular HBeAg level as described herein.

[2] = tested on: HBV (extracellular HBsAg) in primary human hepatocytes; test: Cryopreserved primary human hepatocytes (PHH) HBV infection assay, HBsAg; assay type: cell-based; details: Hepatitis B virus, Hepatocyte, 216 h, HBV-infected cryopreserved PHH, 9 days post-compound treatment, CLIA
Procedure: This assay is used to confirm the anti-HBV effect of the compounds in HBV PHH infection assay. Cryopreserved PHH (BioreclamationIVT, Lot YJM) was thawed at 37° C. and gently transferred into pre-warmed InVitroGRO HT medium (BioreclamationIVT, Cat. S03317).
The mixture was centrifuged at 70 relative centrifugal force (RCF) for 3 minutes at RT, and the supernatant was discarded. Pre-warmed InVitroGRO CP medium (BioreclamationIVT, Cat #S03316) was added to the cell pellet to gently re-suspend cells. The cells were seeded at the density of 5.8×10^4 cells per well to collagen I coated 96-well plate (Gibco, Cat. A1142803) with the InVitroGRO CP medium. All plates were incubated at 37° C. with 5% CO2 and 85% humidity.
At 20 hours after plating, the medium was changed to PHH culture medium (Dulbecco's Modified Eagle Medium (DMEM)/F12 (1:1) (Gibco, Cat. 11320-033), 10% fetal bovine serum (Gibco Cat. 10099141), 100 U/mL penicillin, 100 μg/mL streptomycin (Gibco, Cat. 151401-122), 5 ng/mL human epidermal growth factor (Invitrogen Cat. PHG0311L), 20 ng/mL dexamethasone (Sigma, Cat. D4902) and 250 ng/mL human recombinant insulin (Gibco, Cat. 12585-014)). And the cells were incubated at 37° C. with 5% CO2 and 85% humidity for 4 hours. The medium was then changed to pre-warmed PHH culture medium containing 4% polyethylene glycol (PEG) MW8000 (Sigma, Cat. P1458-50 ML) and 1% DMSO (Sigma, Cat. D2650). 5.8×10^6 genomic equivalents of HBV were added into the medium.
At 24 hours' post-infection, the cells were gently washed with PBS and refreshed with PHH culture medium supplemented with 1% DMSO, and 0.25 mg/mL Matrix gel (Corning, Cat. 356237) at 200 μL per well. All plates were immediately placed in at 37° C. CO2 incubator.
24 hours later, serial dilutions of compounds made with DMSO were further diluted with the same culture medium (PHH culture medium supplemented with 1% DMSO and 0.25 mg/mL Matrix gel as described above) before they were added to the cells to reach desired final compound concentrations and 1% DMSO concentration. The medium containing the compounds were refreshed every three days.
At 9 days' post-compound treatment, extracellular HBsAg level were measured with Chemiluminescence Immuno Assay (CLIA) kit (Autobio, HBsAg Quantitative CLIA).
HBsAg IC50 and HBV DNA IC50 values were derived from the dose-response curve using 4 parameters logistic curve fit method. The compounds of formula (I) have HBsAg IC50<20 μM, particularly <1 μM; and HBV DNA IC50<50 μM.

SMILES	IC50 [1]	IC50 [2]
O=C(O)CCOc1cc(OC(F)(F)F)ccc1C1CC(=O)c2cccc(Cl)c2O1 (centres unmarked) [Example 13, 3-[2-(8-chloro-4-oxo-chroman-2-yl)-5-(trifluoromethoxy)phenoxy]propanoic Acid]	0.39 µM	6.86 µM
O=C(O)CCOc1cc(C(F)(F)F)ccc1C1CC(=O)c2cccc(Cl)c2O1 (centres unmarked) [Example 1, 3-[2-(8-chloro-4-oxo-chroman-2-yl)-5-(trifluoromethyl)phenoxy]propanoic Acid]	0.73 µM	5.31 µM
O=C(O)CCOc1cc(C(F)(F)F)ccc1C1CC(=O)c2cc(F)cc(Cl)c2O1 (centres unmarked) [Example 3, 3-[2-(8-chloro-6-fluoro-4-oxo-chroman-2-yl)-5-(trifluoromethyl)phenoxy]propanoic Acid]	5.59 µM	11.2 µM
O=C(O)CCOc1cc(C(F)(F)F)ccc1C1CC(=O)c2ccc(F)c(Cl)c2O1 (centres unmarked) [Example 2, 3-[2-(8-chloro-7-fluoro-4-oxo-chroman-2-yl)-5-(trifluoromethyl)phenoxy]propanoic Acid]	1.97 µM	4.41 µM
COc1cc(C2CC(=O)c3cccc(Cl)c3O2)c(OCCC(=O)O)cc1C(F)(F)F (centres unmarked) [Example 11, 3-[2-(8-chloro-4-oxo-chroman-2-yl)-4-methoxy-5-(trifluoromethyl)phenoxy]propanoic Acid]	5.14 µM	8.34 µM
O=C(O)CCCOc1cc(C(F)(F)F)ccc1C1CC(=O)c2ccc(F)c(Cl)c2O1 (centres unmarked) [Example 25, 4-[2-(8-chloro-7-fluoro-4-oxo-chroman-2-yl)-5-(trifluoromethyl)phenoxy]butanoic Acid]	1.18 µM	
